Values joined by “and” are separate entries in the source; they are usually repeats but may differ in a detail not shown here. Identical values can stand only once. Like-named read-outs stand apart in the source and are kept apart here.
What was measured:
[1] = system: leukotrienes C4, D4 and E4 and SRS-A; assay: antagonism of leukotrienes C4, D4 and E4 and of SRS-A; details: versus closely related compounds within the scope of EP No. 104,885
Description: The compounds of Formula I are active as antagonists of SRS-A and of leukotriene. The activity of the compounds of Formula I can be detected and evaluated by methods known in the art. See, for example, Kadin, U.S. Pat. No. 4,296,129.

[2] = system: antigen (egg albumin)-induced continuous dyspnea in inbred asthmatic rats; assay: Asthmatic Rat Assay: duration of continuous dyspnea after aerosolized antigen challenge in sensitized inbred asthmatic rats; assay type: in vivo; details: for ED50: Rattus norvegicus, po, read-out: ED50 p.o. (dose which would inhibit the duration of symptoms by 50%)
Description: Sensitized inbred "asthmatic rats" challenged with aerosolized antigen respond with symptoms of continuous dyspnea which is partly mediated by serotonin. […] These rats differ from normal rats in that they have non-specific bronchial hyperreactivity to a number of bronchoconstrictor agents (Brunet et al, J. Immunol., 131, 434 (1983)).
Pretreatment with drugs is used to measure the decrease of the duration of continuous dyspnea and, at higher doses, to eliminate the response (piechuta et a1, Immunology, 38, 385 (1979)).
(1) Animals: Male and female inbred asthmatic rats were used between 10-12 weeks of age. Their weights ranged from 190-250 gm (females) and 260-400 gm (males). Rats were matched by sex and littermates between the various treatment groups. Animals were starved overnight. Water was supplied ad lib.
(2) Materials: Egg albumin (EA), grade V, crystallized and lyophilized was obtained from Sigma Chemical Co., St. Louis. Aluminum hydroxide was obtained from the Reheis Chemical Company, Chicago. Methysergide Bimaleate was supplied by Sandoz Ltd., Basel, Switzerland. Serotonin creatinine sulfate was obtained from Calbiochem-Behring Corp., La Jolla, Calif.
(3) Apparatus: The challenge and subsequent respiratory recordings were carried out in a clear
plastic box with internal dimensions 10×6×4 inches. The top of the box was removable; in use, it was held firmly in place by four clamps and an airtight seal was maintained by a soft rubber gasket. […] A Fleisch No. 0000 pneumotachograph was inserted into one end of the box and coupled to a Grass volumetric pressure transducer (PT5-A) which was then connected to a Beckman Type R Dynograph through appropriate couplers. While aerosolizing the antigen, the outlets were open and the pneumotachograph was isolated from the chamber. The outlets were closed and the pneumotachograph and the chamber were connected during the recordings of the respiratory patterns. For challenge, 2 mL of a 3% solution of antigen in saline was placed into each nebulizer and the aerosol was generated with air from a small Potter diaphragm pump operating at 10 psi and a flow of 8 liters/min.
(4) Procedure: Rats were sensitized by injecting (s.c.) 1 mL of suspension containing 1 mg albumin (EA) and 200 mg aluminum hydroxide in saline. They were used between days 12 and 24 post sensitization. Rats were exposed to aerosol of 3% EA in saline for exactly 1 minute, then their respiratory profiles were recorded for a further 30 minutes. The duration of continuous dyspnea was measured from the respiratory recordings.
Compounds were generally administered either orally 1, 2, 4 or 6 hours prior to challenge or intravenously 2 minutes prior to challenge. Dose volume for oral treatments was 10 mL/kg and for i.v. treatments 1 mL/kg. Compounds were dissolved in distilled water. Methysergide bimaleate was dissolved in saline and administered intravenously at dose of 3 μg/kg 5 minutes before antigen challenge.
The sensitivity of various drug treatments were determined in terms of the decrease in duration of dyspnea in comparison with a group of vehicle treated controls. Usually, a compound was evaluated at a series of doses and an ED50 value was determined. This was defined as the dose (mg/kg) which would inhibit the duration of symptoms by 50%.

[3] = system: antigen (egg albumin)-induced continuous dyspnea in inbred asthmatic rats; details: 3 μg/kg i.v. before challenge; cited from earlier work
[4] = 1.5 mg/kg p.o., 1 hour before challenge

Q: Which results are given for CCCc1c(O)c(C(C)=O)cc(F)c1OCCCS(=O)(=O)c1ccc([C@H](O)[C@@H](C)CC(=O)O)cc1 (relative stereo) [Compound I, (4R*,3S*)-4-[4-(3-(4-acetyl-6-fluoro-3-hydroxy-2-propylphenoxy)propyl-sulfonyl)phenyl]-4-hydroxy-3-methylbutanoic acid]?
A: potency as antagonists of leukotrienes C4, D4 and E4 and of SRS-A [1]: unexpectedly much more potent; Inhib. of Dyspnea ([2]; 0.05 mg/kg p.o., 2 hours before challenge): 40%; Inhib. of Dyspnea ([2]; 0.15 mg/kg p.o., 2 hours before challenge): 48%; Inhib. of Dyspnea ([2]; 0.5 mg/kg p.o., 2 hours before challenge): 57%; Inhib. of Dyspnea [2, 4]: 55%; Inhib. of Dyspnea ([2]; 1.5 mg/kg p.o., 2 hours before challenge): 59% and 65%; Inhib. of Dyspnea ([2]; 1.5 mg/kg p.o., 4 hours before challenge): 65%; Inhib. of Dyspnea ([2]; 1.5 mg/kg p.o., 6 hours before challenge): 63%; ED50 ([2]; 2 hrs before challenge): 0.21 mg/kg; absorption by the oral route ([2]; judged from activity p.o. in the Asthmatic Rat Assay): good absorption by the oral route; duration of action ([2]; p.o., in words): satisfactory duration of action; potency ([2]; p.o., in words): high potency; activity compared with the closely related reference compounds ([2]; versus Ex. 77 and Ex. 93 of EP 104,885, p.o.): significantly more active than the closely related reference compounds

Q: What does the source list for CCCc1c(OCCCS(=O)(=O)c2ccc([C@H](O)[C@@H](C)CC(=O)O)cc2)ccc(C(C)=O)c1O (relative stereo) [Ex. 77, (4R*,3S*)-4-[4-(3-(4-acetyl-3-hydroxy-2-propylphenoxy)propylsulfonyl)phenyl]-4-hydroxy-3-methybutanoic acid, reference compound]?
A: Inhib. of Dyspnea ([2]; 0.15 mg/kg p.o., 1 hour before challenge): 33%; Inhib. of Dyspnea ([2]; 0.5 mg/kg p.o., 1 hour before challenge): 29%; Inhib. of Dyspnea [2, 4]: 29%; Inhib. of Dyspnea ([2]; 5.0 mg/kg p.o., 1 hour before challenge): 44%; ED50 ([2]; 1 hr before challenge): > 5 mg/kg

Q: With CCCc1c(O)c(C(C)=O)cc(F)c1OCCCSc1ccc([C@H](O)[C@@H](C)CC(=O)O)cc1 (relative stereo) [Ex. 93, (4R*,3S*)-4-[4-(3-(4-acetyl-6-fluoro-3-hydroxy-2-propylphenoxy)propylthio)phenyl]-4-hydroxy-3-methylbutanoic acid, reference compound] as the compound, how does the “Inhib. of Dyspnea” value [2, 4] read?
A: 26%

Q: Which “blocking of the serotonin component of continuous dyspnea” value [3] does the source give for CC[C@@H](CO)NC(=O)[C@@H]1C=C2c3cccc4c3c(cn4C)C[C@H]2N(C)C1 [methysergide] here?
A: completely blocked
